Tests used:
[1] = test system: Pyrenophora teres; assay: Activity against net blotch of barley caused by Pyrenophora teres (protective spray, barley seedlings); format: in vivo, Pyrenophora [syn. Drechslera] teres; conditions: 63 ppm; barley cultivar Hanna; inoculated 24 h after spraying; assessed visually after 6 days; untreated plants 90% infected
Procedure: The active compounds were prepared as a stock solution with 0.25% by weight of active compound in acetone or DMSO. 1% by weight of the emulsifier Uniperol® EL (wetting agent having emulsifying and dispersing action based on ethoxylated alkylphenols) was added to this solution, and the mixture was diluted with water to the desired concentration. Leaves of pot-grown barley seedlings of the cultivar “Hanna” were sprayed to runoff point with an aqueous suspensiori having the concentration of active compound stated below. 24 hours after the spray coating had dried on, the test plants were inoculated with an aqueous spore suspension of Pyrenophora [syn. Drechslera] teres, the causative agent of net blotch. The test plants were subsequently placed in a greenhouse at temperatures of between 20 and 24° C. and at a relative atmospheric humidity of 95 to 100%. After 6 days, the extent of the development of the disease was determined visually in % of infection of the total leaf area.

[2] = test system: Plasmopara viticola; assay: Activity against Peronospora of vines caused by Plasmopara viticola (protective spray, potted vines); format: in vivo; conditions: 250 ppm; vines cultivar Riesling; inoculated the day after spraying; assessed visually; untreated plants 90% infected
Procedure: The active compounds were prepared as a stock solution with 0.25% by weight of active compound in acetone or DMSO. 1% by weight of the emulsifier Uniperol® EL (wetting agent having emulsifying and dispersing action based on ethoxylated alkylphenols) was added to this solution, and the mixture was diluted with water to the desired concentration.
Leaves of potted vines of the cultivar “Riesling” were sprayed to runoff point with an aqueous suspension having the concentration of active compounds stated below. The next day, the undersides of the leaves were inoculated with an aqueous zoospore suspension of Plasmopara viticola. The vines were then initially placed in a water-vapor-saturated chamber at 24° C. for 48 hours and then in a greenhouse at temperatures of between 20 and 30° C. for 5 days. After this time, the plants were again placed in a moist chamber for 16 hours to promote sporangiophore eruption. The extent of the development of the infection on the undersides of the leaves was then determined visually.

Structure (SMILES): CC1CCN(c2c(-c3c(F)cc(C(N)=O)cc3F)c(Cl)nc3ncnn23)CC1 [I-1, 5-chloro-6-(2,6-difluoro-4-aminocarbonylphenyl)-7-(4-methylpiperidin-1-yl)-[1,2,4]-triazolo[1,5-a]pyrimidine]
- infection (% of infection of the total leaf area) [1]: about 3%
- infection on the undersides of the leaves [2]: no infection

Source: US20070111889A1, “6-(Aminocarbonyl-phenyl)triazolopyrimidines, methods for the production thereof, use thereof for controlling harmful fungi, and substances containing the same” (BASF Aktiengesellschaft, priority 2003, published 2007)
